Each structure is given as a SMILES string. Like-named read-outs stand apart in the source and are kept apart here.

One data set addresses HDAC4 (Homo sapiens (Human), UniProt P56524). Description: Caliper HDAC enzymatic endpoint assay, HDAC4. The following applies: Table 2C; read-out: HDAC4 IC50 after 0 hr preincubation. Format: biochemical.
The test system of data set [1] is human megakaryocyte progenitors. Put plainly: Growth of human megakaryocyte progenitors (surrogate assay for platelet depletion). The following applies: particularly at 10 μM and 20 μM. Format: cell-based. The procedure:
Compounds of the invention were evaluated for their effect on the growth of human megakaryocyte progenitors (surrogate assay for platelet depletion). Human CD34+ cells were grown in a collagen-based gel (Megacult-C, Stemcell Technologies). […] 100% indicates no difference in cell viability relative to the DMSO treated cells. […] This is the desired effect.

Data set [2] has as its target T1, HDAC3 (Homo sapiens (Human), UniProt O15379). Put plainly: Caliper HDAC enzymatic endpoint assay, HDAC3. Format: biochemical.
Method: (§1) Substrate A was prepared as 2 mM in DMSO. Its final concentration in the assay for HDACs 1, 2, 3, 6 is 2 μM.
(§2) Below is the HDAC and Substrate concentration used in this assay.
For data set [3], the target named is T2, HDAC1 (Homo sapiens (Human), UniProt Q13547). Put plainly: Caliper HDAC enzymatic endpoint assay, HDAC1. It is filed as biochemical.
Method: as §1, §2
For data set [4], the target named is T3, HDAC2 (Homo sapiens (Human), UniProt Q92769). Put plainly: Caliper HDAC enzymatic endpoint assay, HDAC2. Format: biochemical.
Method: as §1, §2
The next data set addresses HDAC5 (Homo sapiens (Human), UniProt Q9UQL6). Description: Caliper HDAC enzymatic endpoint assay, HDAC5. Format: biochemical. The following applies: Table 2C; read-out: HDAC5 IC50 after 0 hr preincubation.
In a further data set the target is HDAC6 (Homo sapiens (Human), UniProt Q9UBN7). Description: Caliper HDAC enzymatic endpoint assay, HDAC6. Format: biochemical. The following applies: Table 2C; read-out: HDAC6 IC50 after 0 hr preincubation.
A further data set addresses HDAC7 (Homo sapiens (Human), UniProt Q8WUI4). Put plainly: Caliper HDAC enzymatic endpoint assay, HDAC7. The following applies: Table 2C; read-out: HDAC7 IC50 after 0 hr preincubation. It is filed as biochemical.
The next data set deals with HDAC9 (Homo sapiens (Human), UniProt Q9UKV0). Put plainly: Caliper HDAC enzymatic endpoint assay, HDAC9. The following applies: Table 2C; read-out: HDAC9 IC50 after 0 hr preincubation. It is filed as biochemical.
Another data set deals with HDAC8 (Homo sapiens (Human), UniProt Q9BY41). Put plainly: Caliper HDAC enzymatic endpoint assay, HDAC8. The following applies: Table 2C; read-out: HDAC8 IC50 after 0 hr preincubation. It is filed as biochemical.
For data set [5], the target named is T3, HDAC2. Description: Kinetics of the inhibition of HDAC2.
Data set [6] addresses T2, HDAC1. Put plainly: Kinetics of the inhibition of HDAC1.
Method: (§3) HDAC1 inactivation kinetic constant was determined by curve-fitting of the plot to a first-order rate equation.
Data set [7] addresses T2, HDAC1. Description: Binding constant from HDAC1 inactivation kinetics. The following applies: HDAC1, values marked *; read-out: Ki (binding constant derived from HDAC1 inactivation kinetics).
Method: as §3
The target of data set [8] is T1, HDAC3. Description: Kinetics of the inhibition of HDAC3.
The subject of data set [9] is HDACs 1, 2, 3, 4, 5, 6, 7, 8, and 9. Put plainly: HDAC selectivity panel (Caliper), isoform selectivity. The following applies: from IC50 values.
Data set [10] in a line: Brain and plasma concentration in mice. It is filed as in vivo. The following applies: for half-life: mouse, other: injected (site of injection not given). How it is done: Specifically, mice were injected with a single dose of compound and the concentration of compound was measured in the brain and plasma of mice at 8 time points. The samples were analyzed by LC-MS/MS.

The mark [11] stands for this setting: read-out: HDAC3 IC50 3 h Preinc, Table 2A, 3 h preincubation.
Setting [12] is: read-out: HDAC1 IC50 3 h Preinc, Table 2A, 3 h preincubation.
Where [13] appears, read: read-out: HDAC2 IC50 3 h Preinc, Table 2A, 3 h preincubation.
The mark [14] stands for this setting: read-out: HDAC3 IC50 3 h Prein, Table 2, 3 h preincubation.
Where [15] appears, read: read-out: HDAC1 IC50 3 h Prein, Table 2, 3 h preincubation.
The mark [16] stands for this setting: read-out: HDAC2 IC50 3 h Prein, Table 2, 3 h preincubation.
[17] abbreviates: mice, single dose, Repligen 136 30 mg/kg, Compound 1 10 mg/kg.

T2 sequence (Q13547 whole entry): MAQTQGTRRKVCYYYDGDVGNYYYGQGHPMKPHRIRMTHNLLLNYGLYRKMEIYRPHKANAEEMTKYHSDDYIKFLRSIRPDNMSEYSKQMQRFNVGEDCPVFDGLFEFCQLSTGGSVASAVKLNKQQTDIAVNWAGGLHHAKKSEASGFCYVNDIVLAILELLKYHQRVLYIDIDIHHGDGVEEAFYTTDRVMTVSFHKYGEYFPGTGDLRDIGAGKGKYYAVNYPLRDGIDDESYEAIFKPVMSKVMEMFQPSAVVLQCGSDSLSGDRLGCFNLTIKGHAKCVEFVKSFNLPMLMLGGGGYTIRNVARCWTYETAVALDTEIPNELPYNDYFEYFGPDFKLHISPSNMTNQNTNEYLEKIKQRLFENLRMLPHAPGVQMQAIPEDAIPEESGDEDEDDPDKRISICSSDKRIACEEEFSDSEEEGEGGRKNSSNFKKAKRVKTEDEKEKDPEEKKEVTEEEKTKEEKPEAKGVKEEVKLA
T3 sequence (Q92769 whole entry): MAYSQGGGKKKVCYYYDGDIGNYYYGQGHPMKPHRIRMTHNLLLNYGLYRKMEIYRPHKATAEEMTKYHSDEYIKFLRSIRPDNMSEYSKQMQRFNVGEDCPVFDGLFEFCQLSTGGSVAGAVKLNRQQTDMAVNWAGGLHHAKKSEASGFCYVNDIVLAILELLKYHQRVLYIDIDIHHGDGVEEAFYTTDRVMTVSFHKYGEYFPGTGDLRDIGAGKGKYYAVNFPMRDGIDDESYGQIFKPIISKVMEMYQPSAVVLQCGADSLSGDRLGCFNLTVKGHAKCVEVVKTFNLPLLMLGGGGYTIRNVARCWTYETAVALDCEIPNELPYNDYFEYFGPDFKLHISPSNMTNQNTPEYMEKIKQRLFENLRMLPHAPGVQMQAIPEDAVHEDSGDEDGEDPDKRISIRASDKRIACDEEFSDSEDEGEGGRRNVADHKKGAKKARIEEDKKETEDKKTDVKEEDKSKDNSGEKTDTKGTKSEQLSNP
T1 sequence (O15379 whole entry): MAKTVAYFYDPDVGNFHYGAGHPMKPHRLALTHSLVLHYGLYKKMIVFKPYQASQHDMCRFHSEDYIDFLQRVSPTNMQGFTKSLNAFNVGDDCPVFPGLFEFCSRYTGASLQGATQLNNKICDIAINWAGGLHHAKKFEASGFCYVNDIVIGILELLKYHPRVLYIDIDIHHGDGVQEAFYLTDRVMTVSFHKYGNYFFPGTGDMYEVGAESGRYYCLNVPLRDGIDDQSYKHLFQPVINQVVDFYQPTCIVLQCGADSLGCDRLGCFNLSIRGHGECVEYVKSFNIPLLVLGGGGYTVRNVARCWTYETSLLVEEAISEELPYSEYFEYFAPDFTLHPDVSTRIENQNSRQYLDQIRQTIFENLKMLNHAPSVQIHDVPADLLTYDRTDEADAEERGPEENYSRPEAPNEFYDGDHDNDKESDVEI
T1 sequence (Q9Y618 395-489 partner): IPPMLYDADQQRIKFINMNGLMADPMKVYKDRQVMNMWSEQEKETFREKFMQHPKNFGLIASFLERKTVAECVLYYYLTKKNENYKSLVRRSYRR
Chain of HDAC4 (P56524 whole entry): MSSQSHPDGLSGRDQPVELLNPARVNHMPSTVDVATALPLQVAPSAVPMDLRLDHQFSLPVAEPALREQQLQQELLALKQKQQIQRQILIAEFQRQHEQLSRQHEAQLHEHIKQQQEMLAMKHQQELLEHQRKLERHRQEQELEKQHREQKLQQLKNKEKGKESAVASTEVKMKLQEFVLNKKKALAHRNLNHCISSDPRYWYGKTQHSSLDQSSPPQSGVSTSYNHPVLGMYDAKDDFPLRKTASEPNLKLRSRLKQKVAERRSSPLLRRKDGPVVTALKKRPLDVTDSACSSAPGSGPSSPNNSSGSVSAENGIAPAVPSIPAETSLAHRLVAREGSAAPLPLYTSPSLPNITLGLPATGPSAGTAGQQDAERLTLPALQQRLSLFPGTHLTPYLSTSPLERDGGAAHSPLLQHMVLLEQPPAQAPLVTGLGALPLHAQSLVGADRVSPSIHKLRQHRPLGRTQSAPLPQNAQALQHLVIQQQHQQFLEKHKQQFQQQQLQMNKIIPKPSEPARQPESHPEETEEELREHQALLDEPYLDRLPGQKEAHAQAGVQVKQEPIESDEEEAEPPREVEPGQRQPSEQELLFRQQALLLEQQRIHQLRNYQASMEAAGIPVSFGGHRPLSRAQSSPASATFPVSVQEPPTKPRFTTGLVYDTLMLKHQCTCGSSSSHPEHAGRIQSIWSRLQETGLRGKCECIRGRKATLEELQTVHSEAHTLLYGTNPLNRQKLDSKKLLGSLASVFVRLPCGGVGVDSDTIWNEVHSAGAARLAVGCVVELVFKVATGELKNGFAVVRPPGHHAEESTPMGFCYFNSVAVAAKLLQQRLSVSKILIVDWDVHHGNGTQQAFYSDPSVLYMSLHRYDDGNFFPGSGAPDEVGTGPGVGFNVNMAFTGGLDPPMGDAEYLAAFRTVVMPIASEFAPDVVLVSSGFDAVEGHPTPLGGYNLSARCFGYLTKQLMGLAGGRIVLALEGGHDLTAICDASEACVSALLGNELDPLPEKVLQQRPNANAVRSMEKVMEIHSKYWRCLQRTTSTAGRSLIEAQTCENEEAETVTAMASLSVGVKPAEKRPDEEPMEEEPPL
Chain of HDAC9 (Q9UKV0 whole entry): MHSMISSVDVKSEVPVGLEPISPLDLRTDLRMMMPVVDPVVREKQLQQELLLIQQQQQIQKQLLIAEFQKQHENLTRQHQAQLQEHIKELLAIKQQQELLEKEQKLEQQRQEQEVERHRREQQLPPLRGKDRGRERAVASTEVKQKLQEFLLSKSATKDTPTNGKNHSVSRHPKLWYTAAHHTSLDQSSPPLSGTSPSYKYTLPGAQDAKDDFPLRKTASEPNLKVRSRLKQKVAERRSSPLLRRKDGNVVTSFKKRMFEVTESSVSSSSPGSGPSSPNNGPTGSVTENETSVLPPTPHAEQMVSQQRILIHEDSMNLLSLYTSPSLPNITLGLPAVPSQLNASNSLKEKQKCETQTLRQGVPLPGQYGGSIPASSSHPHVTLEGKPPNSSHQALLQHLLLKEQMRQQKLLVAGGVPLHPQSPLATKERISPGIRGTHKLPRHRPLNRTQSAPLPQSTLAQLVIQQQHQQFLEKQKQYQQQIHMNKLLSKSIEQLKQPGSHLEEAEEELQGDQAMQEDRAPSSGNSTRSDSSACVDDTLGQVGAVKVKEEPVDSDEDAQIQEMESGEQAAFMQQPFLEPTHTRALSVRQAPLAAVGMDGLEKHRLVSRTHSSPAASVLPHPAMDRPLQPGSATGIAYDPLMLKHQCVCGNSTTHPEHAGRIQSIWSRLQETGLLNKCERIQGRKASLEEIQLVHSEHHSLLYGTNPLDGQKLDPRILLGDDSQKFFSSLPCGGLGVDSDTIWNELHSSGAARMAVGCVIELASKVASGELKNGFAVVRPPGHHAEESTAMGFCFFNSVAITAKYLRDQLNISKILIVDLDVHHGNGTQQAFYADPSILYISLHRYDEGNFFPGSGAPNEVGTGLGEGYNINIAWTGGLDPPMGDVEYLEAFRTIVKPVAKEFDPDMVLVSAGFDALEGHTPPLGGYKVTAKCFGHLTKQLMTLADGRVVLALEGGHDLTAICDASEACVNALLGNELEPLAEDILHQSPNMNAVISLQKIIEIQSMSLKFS
Chain of HDAC8 (Q9BY41 whole entry): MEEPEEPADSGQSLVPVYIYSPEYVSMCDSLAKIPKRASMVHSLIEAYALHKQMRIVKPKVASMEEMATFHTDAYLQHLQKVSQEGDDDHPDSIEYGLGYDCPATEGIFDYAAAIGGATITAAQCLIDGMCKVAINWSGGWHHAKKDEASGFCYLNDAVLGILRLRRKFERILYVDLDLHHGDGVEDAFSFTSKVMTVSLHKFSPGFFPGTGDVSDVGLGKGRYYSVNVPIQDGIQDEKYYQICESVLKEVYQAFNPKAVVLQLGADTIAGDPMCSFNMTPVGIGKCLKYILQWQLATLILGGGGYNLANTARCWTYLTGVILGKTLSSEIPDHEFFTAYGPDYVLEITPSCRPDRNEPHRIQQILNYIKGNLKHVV
Chain of HDAC7 (Q8WUI4 whole entry): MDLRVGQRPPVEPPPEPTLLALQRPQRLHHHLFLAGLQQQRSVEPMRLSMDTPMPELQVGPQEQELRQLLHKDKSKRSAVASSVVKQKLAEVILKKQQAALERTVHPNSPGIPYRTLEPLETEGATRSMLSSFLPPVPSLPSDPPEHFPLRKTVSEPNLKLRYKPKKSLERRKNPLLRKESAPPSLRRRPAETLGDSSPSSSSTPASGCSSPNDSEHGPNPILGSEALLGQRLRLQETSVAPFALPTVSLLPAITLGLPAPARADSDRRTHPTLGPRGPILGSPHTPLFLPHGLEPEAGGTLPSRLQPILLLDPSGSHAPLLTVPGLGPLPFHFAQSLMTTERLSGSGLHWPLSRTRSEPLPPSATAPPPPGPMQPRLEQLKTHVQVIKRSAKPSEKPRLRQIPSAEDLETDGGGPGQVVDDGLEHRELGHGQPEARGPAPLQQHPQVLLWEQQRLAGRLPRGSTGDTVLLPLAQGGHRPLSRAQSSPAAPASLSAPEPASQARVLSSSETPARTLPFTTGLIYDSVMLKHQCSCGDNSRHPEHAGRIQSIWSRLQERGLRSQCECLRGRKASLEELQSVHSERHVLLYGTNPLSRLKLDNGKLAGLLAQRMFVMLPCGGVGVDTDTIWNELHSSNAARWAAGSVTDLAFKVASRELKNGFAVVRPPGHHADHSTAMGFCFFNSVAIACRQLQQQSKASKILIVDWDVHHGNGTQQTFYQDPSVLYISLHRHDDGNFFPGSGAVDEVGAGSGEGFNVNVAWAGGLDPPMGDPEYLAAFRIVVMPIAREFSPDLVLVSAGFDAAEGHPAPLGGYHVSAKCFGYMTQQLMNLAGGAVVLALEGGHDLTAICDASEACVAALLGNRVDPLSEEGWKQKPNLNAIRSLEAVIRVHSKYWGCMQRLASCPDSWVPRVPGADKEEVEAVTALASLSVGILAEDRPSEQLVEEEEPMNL
Method for HDAC4: (§4) The Caliper HDAC Assay Buffer (acronym HAB, 1 liter) was prepared as follows:
(§5) Substrate B was prepared as 2 mM in 100% DMSO. Its final concentration in the assay for HDACs 4, 5, 7, 8, 9 is 2 μM.
(§6) LBH was used as quench inhibitor to stop the reaction at the end point.
IC50 values are in micromolar.
Method for HDAC5: as §4, §5, §6
IC50 values are in micromolar.
Method for HDAC6: as §1, §2
Method for HDAC7: as §4, §5, §6
IC50 values are in micromolar.
Method for HDAC8: as §4, §5, §6
IC50 values are in micromolar.
Method for HDAC9: as §4, §5, §6
IC50 values are in micromolar.

Usually IC50 stands for the midpoint of a concentration-inhibition curve. `CC(=O)Nc1ccc(C(=O)Nc2cc(-c3ccncc3)ccc2N)cc1` [BRD2492, reference compound]: the IC50 at HDAC4 is more than 33 µM; at HDAC3 [2] (read-out: HDAC3 IC50 after 3 hr preincubation, Table 2B), 2080 nM; on HDAC1 [3] (read-out: HDAC1 IC50 after 3 hr preincubation, Table 2B), 2 nM; at HDAC2 [4] (read-out: HDAC2 IC50 after 3 hr preincubation, Table 2B) it was 0.019 µM; on HDAC5, more than 33 µM; on HDAC6, more than 33 µM. Further, the half-maximal inhibitory concentration (IC50) on HDAC7, at HDAC9 and on HDAC8 was more than 33 µM in each case. Further, in data set [1], the “toxicity to human megakaryocyte progenitors at higher concentrations” value is given as “highly toxic”.

In the case of `Nc1cc(F)ccc1NC(=O)c1ccc(CNc2nccc(-c3cccnc3)n2)cc1` [Cmpd 2A, reference compound], the IC50 turned out to be 17 nM at HDAC3 [2] (setting [11]), 12 nM at HDAC1 [3] (setting [12]) and 0.018 µM on HDAC2 [4] (setting [13]).

Take `Nc1ccccc1NC(=O)c1ccc(CNC(=O)/C=C/c2cccnc2)cc1` [Cmpd 3A, reference compound]: the IC50 on HDAC3 [2] (setting [11]) amounted to 22 nM; on HDAC1 [3] (setting [12]) it was 4 nM; at HDAC2 [4] (setting [13]) it was 0.023 µM.

The Ki is a measure of affinity in units of concentration, obtained from inhibition or displacement. A higher Ki goes with lower affinity. The koff is the rate constant with which the complex falls apart. High values mean fast dissociation, low ones slow dissociation. Regarding `Nc1cc(F)ccc1NC(=O)c1ccc(CNC(=O)OCc2cccnc2)cc1` [Compound 1A, reference compound], the Ki amounted to 160 nM on HDAC2 [5] and 93 nM at HDAC3 [8]. The koff at HDAC2 [5] was 0.000633 s⁻¹; at HDAC1 [6], more than 0.00333 s⁻¹; on HDAC3 [8], 0.000147 s⁻¹. The Kon on HDAC2 [5] (HDAC2) is recorded as 0.24 min^−1, uM^−1; at HDAC1 [6] (HDAC1), 1.000 min^−1, uM^−1; at HDAC3 [8] (HDAC3) it was 0.093 min^−1, uM^−1. The T1/2 on HDAC2 [5] (HDAC2 residence) is 17 min; on HDAC1 [6] (HDAC1 residence), less than 4 min; at HDAC3 [8] (HDAC3 residence) it was 79 min. The IC50 at HDAC3 [2] (setting [11]) amounted to 36 nM; at HDAC3 [2] (read-out: HDAC3 IC50 @3 hr, 3 hr preincubation), 36 nM; on HDAC1 [3] (setting [12]), 120 nM; on HDAC1 [3] (read-out: HDAC1 IC50 @3 hr, 3 hr preincubation) it was 120 nM; on HDAC2 [4] (setting [13]), 0.157 µM; on HDAC2 [4] (read-out: HDAC2 IC50 @3 hr, 3 hr preincubation), 0.157 µM. In addition, the KI (inactivation) on HDAC1 [7] was 160 nM. For the same compound, the “loss in potency for HDAC3 (Ki) compared to MS-275” value at HDAC3 [8] amounted to 8 fold. On HDAC3 [8] (Ki selectivity HDAC3 versus HDAC1 and 2), the “less selective than compound 1” value is reported as 100 fold. Moreover, the “binding selectivity (Ki) for HDAC3 versus HDAC1” value on HDAC3 [8] (thermodynamic (Ki)) came out at 1.7 fold. Moreover, the “binding selectivity (Ki) for HDAC3 versus HDAC2” value on HDAC3 [8] (thermodynamic (Ki)) amounted to 1.7 fold.

Turning to `CC(=O)Nc1ccc(C(=O)Nc2ccc(Cl)cc2N)cc1` [Compound 2, 4-acetamido-N-(2-amino-4-chlorophenyl)benzamide], the IC50 was found to be 2050 nM on HDAC3 [2] (setting [14]), 4560 nM at HDAC1 [3] (setting [15]) and 24.4 µM at HDAC2 [4] (setting [16]).

For `CC(=O)Nc1ccc(C(=O)Nc2c(N)cccc2F)cc1` [Compound 3, 4-acetamido-N-(2-amino-6-fluorophenyl)benzamide], the IC50 at HDAC3 [2] (setting [14]) was found to be 551 nM; on HDAC1 [3] (setting [15]), 2180 nM; at HDAC2 [4] (setting [16]), 4.93 µM. Further, the “HDAC isoform selectivity” value in data set [9] is “HDAC3 selective compound”.

For `CC(=O)Nc1ccc(C(=O)Nc2cccc(F)c2N)cc1` [Compound 4, 4-acetamido-N-(2-amino-3-fluorophenyl)benzamide], the IC50 was 376 nM on HDAC3 [2] (setting [14]), 2120 nM at HDAC1 [3] (setting [15]) and 4.44 µM on HDAC2 [4] (setting [16]). Further, the “HDAC isoform selectivity” value in data set [9] is “HDAC3 selective compound”.

With `CC(=O)Nc1ccc(C(=O)Nc2cc(Br)ccc2N)cc1` [Compound 5, 4-acetamido-N-(2-amino-5-bromophenyl)benzamide], the IC50 on HDAC3 [2] (setting [14]) was found to be 299 nM; on HDAC1 [3] (setting [15]) it was 1730 nM; on HDAC2 [4] (setting [16]), 3.54 µM.

`CC(=O)Nc1ccc(C(=O)Nc2ccc(F)cc2N)c(F)c1` [Compound 6, 4-acetamido-N-(2-amino-4-fluorophenyl)-2-fluorobenzamide]: the IC50 on HDAC3 [2] (setting [14]) came out at 80 nM; at HDAC1 [3] (setting [15]), 1380 nM; on HDAC2 [4] (setting [16]) it was 3.12 µM. In addition, in data set [9], the “HDAC isoform selectivity” value is “HDAC3 selective compound”.

For the compound `Nc1cc(F)ccc1NC(=O)c1ccccc1` [Compound 7, N-(2-amino-4-fluorophenyl)benzamide], the values for the IC50 at HDAC3 [2] (setting [14]), on HDAC1 [3] (setting [15]) and on HDAC2 [4] (setting [16]) were 418 nM, 7950 nM and 12.7 µM, respectively. For the same compound, the “HDAC isoform selectivity” value in data set [9] is recorded as “HDAC3 selective compound”.

With `Nc1cc(F)ccc1NC(=O)c1ccc(F)cc1` [Compound 8, N-(2-amino-4-fluorophenyl)-4-fluorobenzamide], the IC50 at HDAC3 [2] (setting [14]) was determined as 436 nM; on HDAC1 [3] (setting [15]) it was 8260 nM; at HDAC2 [4] (setting [16]) it was 11.7 µM. Besides, the “HDAC isoform selectivity” value in data set [9] was “HDAC3 selective compound”.

Take `CC(=O)Nc1ccc(C(=O)Nc2ccc(C(F)(F)F)cc2N)cc1` [Compound 10, 4-acetamido-N-(2-amino-4-(trifluoromethyl)phenyl)benzamide]: the IC50 at HDAC3 [2] (setting [14]) was more than 33000 nM; on HDAC1 [3] (setting [15]) it was more than 33000 nM; on HDAC2 [4] (setting [16]) it was more than 33 µM.

Turning to `CC(=O)Nc1ccc(C(=O)Nc2cc(F)ccc2N)cc1` [Compound 11, 4-acetamido-N-(2-amino-5-fluorophenyl)benzamide], the IC50 was 106 nM on HDAC3 [2] (setting [14]), 153 nM on HDAC1 [3] (setting [15]) and 0.479 µM at HDAC2 [4] (setting [16]).

As to `CC(=O)Nc1ccc(C(=O)Nc2ccccc2N)c(F)c1` [Compound 12, 4-acetamido-N-(2-aminophenyl)-2-fluorobenzamide], the IC50 at HDAC3 [2] (setting [14]) was 84 nM; at HDAC1 [3] (setting [15]), 90 nM; on HDAC2 [4] (setting [16]), 0.304 µM.

Turning to `Cc1ccc(C(=O)NCCCCCC(=O)Nc2ccc(F)cc2N)cc1` [Repligen 136, N-(6-(2-amino-4-fluorophenylamino)-6-oxohexyl)-4-methylbenzamide, reference compound], in [10] (setting [17]), the “AUC Brain” value was determined as 0.32 µmol·h/L, the “Cmax Brain” value was found to be 0.37 µmol/L and the “concentration in the brain over time” value is given as “not measurable after 2 hours”. Besides, the half-life in data set [10] (brain, read-out: T1/2 Brain (converted)) is 20.4 min. In [10] (plasma, read-out: T1/2 Plasma (converted)), the half-life is 82.8 min.
